Assay results as given in patent publication US6410558B1, “Fungicides for the control of take-all disease of plants” (Monsanto Technology LLC, priority 1991, dated 2002).

Test system: Gaeumannomyces graminis var. tritici (Ggt)
Assay: In vitro Assay: mycelial growth of Ggt on minimal media agar plates containing test compound
Type: cell-based
Details: dark, 19-20° C., 4 to 5 days, diameter of mycelial growth; for inhibition at 0.1 ppm / inhibition at 1 ppm / inhibition at 10 ppm: Gaeumannomyces graminis; for inhibition at 0.1 ppm: read-out: In vitro (ppm) 0.1, Percent Inhibition; for inhibition at 1 ppm: read-out: In vitro (ppm) 1, Percent Inhibition; for inhibition at 10 ppm: read-out: In vitro (ppm) 10, Percent Inhibition
Procedure: The test compounds (0.25 mL of an appropriate stock solution in acetone) are incorporated into 25 mL minimal media agar [(prepared by autoclaving a solution of 17.5 g Czapek Dox broth (Difco), 7.5 g purified agar or Bacto-agar (Difco), and 500 mL distilled/deionized water, and then adding 50 μL of 1 mg/mL thiamine hydrochloride and 50 μL of 1 mg/mL biotin in 5% ethanol] and plates are prepared.
Each plate is inoculated by placing in a triangular shape three 4-mm plugs of Gaeumannomyces graminis var. tritici (Ggt) grown on the minimal media agar described above. The plates are incubated in the dark at 19-20° C. for 4 to 5 days. The growth of the fungus is measured as the diameter of the mycelial growth. The result is expressed as Percent Inhibition, calculated as [1-[(mm growth on treated plate −4)/(mm growth on control plate −4)]]×100.

| SMILES | inhibition at 0.1 ppm (0.1 ppm in minimal media agar) | inhibition at 1 ppm (1 ppm in minimal media agar) | inhibition at 10 ppm (10 ppm in minimal media agar) | In vitro (ppm) 0.1, Percent Inhibition (0.1 ppm in minimal media agar) | In vitro (ppm) 1, Percent Inhibition (1 ppm in minimal media agar) | In vitro (ppm) 10, Percent Inhibition (10 ppm in minimal media agar) |
| --- | --- | --- | --- | --- | --- | --- |
| CCN(CC)C(=O)c1cccc(C)c1[Si](C)(C)C [Example 64, N,N-diethyl-3-methyl-2-(trimethylsilyl)benzamide] | 20% | 14% | 31% | – | – | – |
| CCN(CC)C(=O)c1c([Si](C)(C)C)ccc(F)c1Cl [Example 88, N,N-Diethyl-2-chloro-3-fluoro-6-(trimethylsilyl)benzamide] | < 0% | < 0% | 73% | – | – | – |
| CCNC(=O)c1nc(Cl)sc1[Si](C)(C)C [Example 282, 2-Chloro-N-ethyl-5-(trimethylsilyl)-4-thiazolecarboxamide] | 3% | 15% | 78% | – | – | – |
| CCNC(=O)c1c(F)cccc1SC(C)(C)C [Example 90] | – | – | – | 6% | 34% | 89% |
| CCNC(=O)c1cc(N=C=S)ccc1[Si](C)(C)C [Example 245, N-Ethyl-5-isothiocyanato-2-(trimethylsilyl)benzamide] | 50% | 100% | 100% | – | – | – |
| CCNC(=O)c1sc([S+](C)[O-])cc1[Si](C)(C)C (stereo not drawn) [Example 260, N-Ethyl-5-(methylsulfinyl)-3-(trimethylsilyl)-2-thiophenecarboxamide] | < 0% | < 0% | 77% | – | – | – |
| CCN(CC)C(=O)c1c(C)ccc(F)c1[Si](C)(C)C(C)(C)C [Example 10, 2-[(1,1-Dimethylethyl)dimethylsilyl]-N,N-diethyl-3-fluoro-6-methylbenzamide] | < 0% | < 0% | 50% | – | – | – |
| C[Si](C)(C)c1cccc(Cl)c1C(=O)NC(c1ccccc1)n1nnc2ccccc21 (stereo not drawn) [Example 170, N-(1H-Benzotriazol-1-ylphenylmethyl)-2-chloro-6-(trimethylsilyl)benzamide] | 12% | 9% | 63% | – | – | – |
| C#CC(C)(C)NC(=O)c1c(Cl)cccc1[Si](C)(C)C [Example 107, 2-Chloro-N-(1,1-dimethyl-2-propynyl)-6-(trimethylsilyl)benzamide] | < 0% | < 0% | 24% | – | – | – |
| CCNC(=O)C1=CSC(Cl)N1[Si](C)(C)C (stereo not drawn) [Example 283, 2-Chloro-N-ethyl-3-(trimethylsilyl)-4-thiazolecarboxamide] | < 0% | 3% | 42% | – | – | – |
| CCNC(=O)c1c([Si](C)(C)C)csc1Cl [Example 177, 2-Chloro-N-ethyl-4-(trimethylsilyl)-3-thiophenecarboxamide] | 11% | 19% | 100% | – | – | – |
| C/C=C\NC(=O)c1c(Cl)cccc1[Si](C)(C)C [Example 112, (Z)-2-Chloro-N-1-propenyl-6-(trimethylsilyl)benzamide] | 81% | 96% | 100% | – | – | – |
| CCNC(=O)c1c([Si](C)(C)C)ccc(/C=C/[N+](=O)[O-])c1Cl [Example 241, 2-Chloro-N-ethyl-3-(2-(E)-nitro-ethenyl)-6-(trimethylsilyl)benzamide] | 13% | 87% | 100% | – | – | – |
| C#CCNC(=O)c1c(I)cccc1[Si](C)(C)C [Example 208, 2-Iodo-N-2-propynyl-6-(trimethylsilyl)benzamide] | < 0% | 83% | 97% | – | – | – |
| CCNC(=O)c1sncc1[Si](C)(C)C [Example 259, N-Ethyl-4-(trimethylsilyl)-5-isothiazolecarboxamide] | 19% | 11% | 80% | – | – | – |
| CCN(COC)C(=O)c1c(C)cccc1[Si](C)(C)C [Example 127, N-Ethyl-N-(methoxymethyl)-2-methyl-6-(trimethylsilyl)benzamide] | < 0% | 21% | 74% | – | – | – |
